Test results as given in patent US20260137711A1, “COMBINATION THERAPY FOR CANCER” (NATIONAL UNIVERSITY OF IRELAND, GALWAY, priority 2022, published 2026).

How the values were obtained:
Assay type in all cases: cell-based, human
MCF10A cells [1] = assay: Long-term cell proliferation assay, crystal violet staining; conditions: 31 nM BI-1347 alone, 7 days, compared to controls
Description: (a and b) MCF10A cells were plated at equal low density and then either mock treated or treated with 31 nM BI-1347, in the presence or absence of XL413 at a doses of (a) 1.25 μM or (b) 10 μM over a 7 day period. Representative images of crystal violet-stained cells are shown alongside quantitation of crystal violet intensity normalised to the untreated control.
Briefly, MCF10A cells were mock-treated or treated in the continued presence of a dual-specificity CDK8/CDK19 inhibitor, BI-1347, in the presence or absence of XL413 at two different concentrations (1.25 μM and 10 μM) for a 7-day period. Relative cell proliferation was estimated by staining cells with crystal violet and measuring staining intensities. […] Importantly the addition of BI-1347 to XL413 caused a further reduction in cell number with staining intensity decreasing by 70% and 95% respectively.
MCF10A cells were seeded at 4,000 cells per well of a 6 well plate and after 24 hours were treated with inhibitors before being incubated for 7 days at 37° C. with 5% CO2. Media was removed from the cells which were then washed with PBS and air dried before being fixed with 100% methanol for 1 hour. Following removal of methanol the plates were air-dried, stained with crystal violet staining solution (0.2% crystal violet, 25% methanol) for 1 hour at room temperature, washed with ddH2O and air-dried. Plates were scanned using a HP Scanjet 4050, to generate images of crystal violet stained cells, and crystal violet staining intensity was acquired using the Odyssey infrared imaging system and Image Studio software (LI-COR Biosciences).

MCF10A cells [2] = assay: Flow cytometry of cell cycle distribution and DNA synthesis (EdU/DAPI)
Description: (c) A typical profile obtained by flow cytometry of MCF10A cells labelled with EdU and DAPI that indicates the gating applied in order to determine the percentage of cells with sub-G1 DNA content (sub-G1), G1 cells (G1), replicating early-mid S phase cells (Early-Mid S/EdU+), replicating mid-late S phase cells (Mid-Late S/EdU+), cells with S phase DNA content but not replicating (2n<& <4n/EdU−), and cells either in G2 or mitosis (G2/M).(d-f) MCF10A cells were mock treated or treated with 10 μM XL413, in the presence or absence of increasing concentrations of the CDK8 inhibitor BI-1347, for 24 hours. (d) Cells were labelled with EdU for last 30 minutes and DNA synthesis, DNA content and cell cycle distribution were assessed by flow cytometry and analysed using the gating strategy described in above (FIG. 2c). (e) Distribution of cells in the cell cycle. (f) Fluorescence intensity, proportional to EdU incorporation, in individual S phase cells. Long and short horizontal black lines indicate the median and the interquartile range, respectively, extending from the 25th to the 75th percentile for ˜3,810 cells for each condition. Data is from a single experiment.
FIG. 3: CDK8 activity is required for efficient DNA synthesis under conditions of limited CDC7 kinase activity (a-c) MCF10A cells were mock treated or treated with 31 nM BI-1347, in the presence or absence of increasing concentrations of the CDC7 inhibitors, XL413 (a-c) and TAK-931 (d-f), for 24 hours. (a and d) Cells were labelled with EdU for last 30 minutes and DNA synthesis, DNA content and cell cycle distribution were assessed by flow cytometry and analysed using the gating strategy described in FIG. 2c.c (b and e) distribution of cells in the cell cycle. (c and f) Fluorescence intensity, proportional to EdU incorporation, in individual S phase cells. Long and short horizontal black lines indicate the median and the interquartile range, respectively, extending from the 25th to the 75th percentile for ˜4,190 cells for each condition. Data is from a single experiment.
To analyse the cell cycle and DNA synthesis, nascent DNA was labelled by incubating cells with 10 μM EdU for either 20 or 30 minutes prior to harvest, washing with PBS, and then by resuspension in PBS containing 70% EtOH for 1 hour at −20° C. After a PBS wash, incorporated EdU was labelled by incubating cells in click reaction buffer (PBS containing 10 μM 6-Carboxyfluorescine-TEG-azide, 10 mM Sodium-L-ascorbate, 2 mM Copper-II-Sulphate) for 30 minutes protected from light. Cells were washed in PBS containing 1% BSA, 5% Tween 20 and then DNA stained in PBS containing 1% BSA and 1 μg/ml DAPI. All washes involve: centrifugation at 400×g for 5 minutes, removal of supernatant from pellet, resuspension in the appropriate buffer, recentrifugation and removal of supernatant from the pellet prior to the next step.
Fluorescence intensity data for 6-Carboxyfluorescine (488_530_30 nm) and DAPI (405_450_50 nm) were acquired for 10,000 single cells on a BD FACS Canto II and analysed using FlowJo software. To further analyse fluorescence intensity, proportional to EdU incorporation, for individual cells, gates were applied on DAPI-EdU biparametric dot plots to select for EdU positive S phase cells using FlowJo. According to the required analysis these gates included either all S phase cells, or only early or late S phase cells. Fluorescence intensity (488_530_30) values per cell were exported and plotted as scatter dot plots using GraphPad prism. For comparisons of mean fluorescence intensity of a cell population across three biological repeat experiments, all fluorescence intensity values were normalised to the maximum fluorescence intensity of the untreated control sample of each respective experiment to account for absolute differences in EdU staining. […]

MDA-MB-231 = assay: as above; conditions: 31 nM BI-1347 with 1.25 μM XL413, 24 hours
Description: (§1) Supplemental FIG. 3: Characteristic phenotypes associated with inhibition of CDC7 and CDK8 are observed in multiple cell lines A panel of different cell lines, including: MDA-MB-468 (a-c); MDA-MB-231 (d-f); and U-2 OS (g-i), were mock treated or treated with 1.25 μM XL413 and/or 31 nM BI-1347BI-1347 for 24 hours. Cells were labelled with EdU for last 30 minutes and DNA synthesis, DNA content and cell cycle distribution were assessed by flow cytometry and analysed using the gating strategy described in FIG. 2c. (b, e and h) distribution of cells in the cell cycle. (c, f and i) Fluorescence intensity, proportional to EdU incorporation, in individual S phase cells. Long and short horizontal black lines indicate the median and the interquartile range, respectively, extending from the 25th to the 75th percentile for ˜3,922 (MDA-MB-468), ˜3,291 (MDA-MB-231), and ˜4,628 (U-2 OS) cells for each condition. Data is from a representative experiment from 3 biological repeats. […]
(§2) Fluorescence intensity data for 6-Carboxyfluorescine (488_530_30 nm) and DAPI (405_450_50 nm) were acquired for 10,000 single cells on a BD FACS Canto II and analysed using FlowJo software. To further analyse fluorescence intensity, proportional to EdU incorporation, for individual cells, gates were applied on DAPI-EdU biparametric dot plots to select for EdU positive S phase cells using FlowJo. […] Fluorescence intensity (488_530_30) values per cell were exported and plotted as scatter dot plots using GraphPad prism. For comparisons of mean fluorescence intensity of a cell population across three biological repeat experiments, all fluorescence intensity values were normalised to the maximum fluorescence intensity of the untreated control sample of each respective experiment to account for absolute differences in EdU staining. The mean fluorescence intensity values of these cell populations across three biological repeat experiments are expressed as a ratio relative to a control sample and plotted as a scatter dot plot using GraphPad prism.

MDA-MB-468 = assay: as above; conditions: 31 nM BI-1347 with 1.25 μM XL413, 24 hours
Description: as §1, §2

U-2 OS = assay: as above; conditions: 31 nM BI-1347 with 1.25 μM XL413, 24 hours
Description: as §1, §2

[3] = BI-1347 alone at increasing concentrations, 24 hours
[4] = CDC7 inhibitor alone at increasing concentrations, absence of CDK8/CDK19i, 24 hours
[5] = CDC7 inhibitor at increasing concentrations together with the CDK8/CDK19 inhibitor (31 nM BI-1347), 24 hours, all doses tested

Row | Compound | decrease in the relative staining intensity (crystal violet) (MCF10A cells [1]) | cell cycle distribution (MCF10A cells [2]; [3]) | rate of DNA synthesis in S phase cells (MCF10A cells [2]; [3]) | increase in the potency of the CDC7 inhibitor in replication assays (MCF10A cells [2]; BI-1347 in combination with CDC7 inhibitors, decrease in rate of DNA synthesis) [fold] | potentiation of cell cycle and DNA replication phenotypes imposed by CDC7 inhibition (MDA-MB-231) | potentiation of cell cycle and DNA replication phenotypes imposed by CDC7 inhibition (MDA-MB-468) | potentiation of cell cycle and DNA replication phenotypes imposed by CDC7 inhibition (U-2 OS) | cell cycle distribution (MCF10A cells [2]; [4]) | rate of DNA synthesis of S phase cells (MCF10A cells [2]; [4]) | cell cycle distribution (MCF10A cells [2]; [5]) | rate of DNA synthesis (MCF10A cells [2]; [5])
1 | CN(C)C(=O)Cn1ccc(-c2ccc(-c3cncc4ccccc34)cc2)c1 [BI-1347] | approximately 30% | dose-dependent increase in G1 phase cells with a corresponding decrease in early-mid S phase cells | subtle and dose-independent decrease | ~10 | strong potentiation | strong potentiation | strong potentiation | – | – | – | –
2 | Cc1n[nH]cc1-c1cc2[nH]c([C@@H]3CC4CCN3CC4)nc(=O)c2s1 [TAK-931] | – | – | – | – | – | – | – | dose-dependent accumulation of mid-late S phase cells | corresponding decrease | more pronounced accumulation of cells in mid-late S phase | much more profound decrease
